Experimental data from publication PMC9204419, “A Toolbox for the Generation of Chemical Probes for Baculovirus IAP Repeat Containing Proteins” (Frontiers in Cell and Developmental Biology, 2022).
Read-outs that look alike come from different tables or passages of the source. Blank lines part the entries; values can stand above or below the molecule they belong to. Starred links: 1 amine or outer side, 2 acyl side, 3 side chain; linkers in the order of their positions; H or OH if unused. Positions of bridges follow the written chain, without caps; N, C: chain ends. Non-standard residues stand in square brackets, D forms with d. Residues, ends and D or L forms follow the SMILES beside them. Chains are numbered I, II in the order given. Hexamethylenediamine = C(CCCN[*:2])CCN[*:1]; Dip = N[C@H](C(=O)O)C(c1ccccc1)c1ccccc1; Chg = N[C@H](C(=O)O)C1CCCCC1; NMeA = CN[C@@H](C)C(=O)O

What was measured:
[1] = target: T1, BIRC2-BIR3 domain (Homo sapiens, UniProt Q13490); test: Isothermal titration calorimetry (ITC); format: binding; parameters: BIRC2-BIR3 domain (260–352) was expressed; His6 (N, cleaved yes); GST (N, cleaved yes); made in house; host or cells: E. coli; settings: 25°C; for Kd: duplicates, mean ± SD, read-out: K D Measured in ITC
Procedure: For this protocol, the chamber was pre-equilibrated with the test compound, and the BIRC2-BIR3 domain was titrated in while continuously measuring the rate of exothermic heat evolution. The heat of binding was integrated, corrected, and fitted to an independent single-binding site model based on the manufacturer’s instructions, from which thermodynamic parameters (ΔH and TΔS), equilibrium association and dissociation constants (K A and K D, respectively), and stoichiometry (n) were calculated.

[2] = target: BIRC3 BIR3 (Homo sapiens, UniProt Q13489); test: NanoBRET cellular target engagement, single domain BIRC3 BIR3
Procedure: (§1) In brief: Constructs contained the cDNA of full-length or single domains cloned in frame with an N-terminal NanoLuc-fusion as specified in Supplementary Table S2. Plasmids were transfected into HEK293T cells using FuGENE HD (Promega, E2312) and proteins were allowed to express for 20 h. […] The corresponding transfected cells were added and reseeded at a density of 2.5^5 cells/mL after trypsinization and resuspending in Opti-MEM without phenol red (Life Technologies). […] Competitive displacement data were then graphed using GraphPad Prism 9.3 software using a normalized 3-parameter curve fit with the following equation: Y = 100/(1 + 10^(X-LogIC50)).

[3] = target: BIRC2 (Homo sapiens, UniProt Q13490); test: NanoBRET cellular target engagement, full-length BIRC2
Procedure: as §1

[4] = target: T2, BIRC7 BIR (Homo sapiens, UniProt Q96CA5); test: NanoBRET cellular target engagement, single domain BIRC7 BIR
T2 sequence (Q96CA5 70-176): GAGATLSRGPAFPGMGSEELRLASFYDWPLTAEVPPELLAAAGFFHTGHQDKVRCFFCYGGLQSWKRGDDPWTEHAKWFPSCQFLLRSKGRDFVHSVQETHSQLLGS

[5] = target: T3, BIRC7 (Homo sapiens, UniProt Q96CA5); test: NanoBRET cellular target engagement, full-length BIRC7
T3 sequence (Q96CA5 1-298): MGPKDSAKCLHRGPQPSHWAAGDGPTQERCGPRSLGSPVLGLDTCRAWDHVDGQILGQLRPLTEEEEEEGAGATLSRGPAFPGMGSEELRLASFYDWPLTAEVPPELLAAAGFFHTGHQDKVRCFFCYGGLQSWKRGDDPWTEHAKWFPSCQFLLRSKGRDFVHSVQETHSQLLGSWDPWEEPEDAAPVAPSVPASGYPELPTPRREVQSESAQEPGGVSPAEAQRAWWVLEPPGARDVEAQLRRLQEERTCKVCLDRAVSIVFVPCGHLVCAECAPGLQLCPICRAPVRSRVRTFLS
Procedure: as §1

[6] = target: T1, BIRC2-BIR3 domain; test: Differential scanning fluorimetry (DSF); settings: for ΔTm [°C] (Supplementary Table S1): technical replicate
Procedure: Purified proteins were buffered in DSF buffer (25 mM HEPES pH 7.5, 500 mM NaCl) and were assayed in a 384-well plate (Thermo, #BC3384) with a final protein concentration of 20 μM in 10 μL final assay volume. Inhibitors were added in excess to a final concentration of 40 μM, using an ECHO 550 acoustic dispenser (Labcyte). As a fluorescent probe, SYPRO-Orange (Molecular Probes) was used at 5x final concentration. […] Data was analyzed using Boltzmann-equation in the Protein Thermal Shift software (Applied Biosystems). Samples were measured in technical triplicates.
The assay was run in the presence of DMSO to exclude DMSO influences towards melting temperature differences when testing small molecules (Figures 2C,D).

[7] = target: T4, BIRC8 BIR (Homo sapiens, UniProt Q96P09); test: NanoBRET cellular target engagement, single domain BIRC8 BIR
T4 sequence (Q96P09 1-90): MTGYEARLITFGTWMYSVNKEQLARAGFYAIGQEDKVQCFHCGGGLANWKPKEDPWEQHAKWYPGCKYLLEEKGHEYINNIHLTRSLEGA
Procedure: as §1

[8] = target: T1, BIRC2-BIR3 domain; test: Fluorescence polarization (FP) competition assay with fluorescent SMAC probe; format: binding; parameters: BIRC2-BIR3 domain (260–352) was expressed; His6 (N, cleaved yes); GST (N, cleaved yes); made in house; host or cells: E. coli; settings: read-out: FP Assay K I Values
Procedure: Resulting data was plotted using GraphPad Prism 9.3 software and analyzed using a nonlinear fit to calculate the probe IC50. […] Compounds were titrated from 20 μM to 20 nM using an ECHO 550 acoustic dispenser (Labcyte) incubated for 1 h at room temperature and subsequent read out.
The assay is based on the displacement of a fluorescent SMAC mimetic from the binding site.

[9] = target: BIRC2 BIR2 (Homo sapiens, UniProt Q13490); test: NanoBRET cellular target engagement, single domain BIRC2 BIR2
Procedure: as §1

[10] = target: BIRC3 (Homo sapiens, UniProt Q13489); test: NanoBRET cellular target engagement, full-length BIRC3
Procedure: as §1

[11] = target: BIRC2 BIR3 (Homo sapiens, UniProt Q13490); test: NanoBRET cellular target engagement, single domain BIRC2 BIR3
Procedure: as §1

[12] = target: BIRC4 (Homo sapiens, UniProt P98170); test: NanoBRET cellular target engagement, full-length BIRC4
Procedure: as §1

[13] = target: T5, BIRC1 BIR[2] (Homo sapiens, UniProt Q13075); test: NanoBRET cellular target engagement, single domain BIRC1 BIR[2]
T5 sequence (Q13075 139-251): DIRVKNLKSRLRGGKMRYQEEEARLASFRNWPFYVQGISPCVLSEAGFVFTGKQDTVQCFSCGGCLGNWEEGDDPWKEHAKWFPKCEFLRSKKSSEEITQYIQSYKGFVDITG

[14] = target: BIRC3 BIR2 (Homo sapiens, UniProt Q13489); test: NanoBRET cellular target engagement, single domain BIRC3 BIR2
Procedure: as §1

[15] = target: T6, BIRC8 (Homo sapiens, UniProt Q96P09); test: NanoBRET cellular target engagement, full-length BIRC8
T6 sequence (Q96P09 1-236): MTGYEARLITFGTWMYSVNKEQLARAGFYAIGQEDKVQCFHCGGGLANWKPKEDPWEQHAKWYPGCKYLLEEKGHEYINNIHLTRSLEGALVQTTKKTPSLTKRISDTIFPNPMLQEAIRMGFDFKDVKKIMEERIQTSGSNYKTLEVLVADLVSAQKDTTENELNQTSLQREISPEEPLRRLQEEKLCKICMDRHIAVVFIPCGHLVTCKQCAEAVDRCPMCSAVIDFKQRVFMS
Procedure: as §1

[16] = target: T1, BIRC2-BIR3 domain; parameters: BIRC2-BIR3 domain (260–352) was expressed; His6 (N, cleaved yes); GST (N, cleaved yes); made in house; host or cells: E. coli; settings: read-out: Literature FP Assay K I Values, cited from earlier work
[17] = target: T7, BIRC2-BIR3 domain (260-352) (human, UniProt Q13490 260-352); test: fluorescence polarisation; BIRC2-BIR3 titrated from 40 uM to 600 pM into 30 nM FAM-labelled SMAC probe; 50 mM HEPES pH 7.5, 150 mM NaCl, 5% glycerol, 1 mM TCEP, 0.05% TWEEN20; 1 h at room temperature; settings: both partners purified
T7 construct: BIR3 domain of human BIRC2 (cIAP1), residues 260-352; The expression tag was cleaved with TEV protease; also called BIR3 domain of BIRC2; not shown: His6, N-terminal, cleaved; GST, N-terminal, cleaved
T7 sequence (Q13490 260-352): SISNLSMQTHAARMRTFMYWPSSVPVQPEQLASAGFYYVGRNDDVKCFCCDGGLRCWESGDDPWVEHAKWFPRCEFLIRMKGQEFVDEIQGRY

BIRC2 BIR2, sequence (Q13490 165-267): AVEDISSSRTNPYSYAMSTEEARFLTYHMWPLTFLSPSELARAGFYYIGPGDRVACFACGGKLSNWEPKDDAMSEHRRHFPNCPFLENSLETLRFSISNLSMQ
T1 sequence (Q13490 260-352): as the sequence (Q13490 260-352) above
BIRC3, sequence (Q13489 whole entry, the tested form may be a part): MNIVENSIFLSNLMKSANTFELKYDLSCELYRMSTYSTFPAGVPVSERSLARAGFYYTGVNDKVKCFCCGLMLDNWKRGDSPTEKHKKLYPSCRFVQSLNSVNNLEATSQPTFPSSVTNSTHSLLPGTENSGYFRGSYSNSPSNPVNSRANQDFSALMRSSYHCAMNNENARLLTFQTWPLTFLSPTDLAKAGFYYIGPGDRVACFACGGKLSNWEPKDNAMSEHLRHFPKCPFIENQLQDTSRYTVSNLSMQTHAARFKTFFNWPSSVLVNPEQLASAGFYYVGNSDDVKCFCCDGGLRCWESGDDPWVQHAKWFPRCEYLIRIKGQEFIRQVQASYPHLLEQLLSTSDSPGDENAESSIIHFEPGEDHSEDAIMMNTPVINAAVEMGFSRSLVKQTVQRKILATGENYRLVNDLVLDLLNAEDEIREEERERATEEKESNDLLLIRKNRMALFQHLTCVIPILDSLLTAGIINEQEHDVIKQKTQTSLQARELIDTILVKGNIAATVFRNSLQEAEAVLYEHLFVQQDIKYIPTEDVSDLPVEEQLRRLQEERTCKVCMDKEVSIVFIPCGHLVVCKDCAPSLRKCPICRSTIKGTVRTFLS
BIRC3 BIR3, sequence (Q13489 236-360): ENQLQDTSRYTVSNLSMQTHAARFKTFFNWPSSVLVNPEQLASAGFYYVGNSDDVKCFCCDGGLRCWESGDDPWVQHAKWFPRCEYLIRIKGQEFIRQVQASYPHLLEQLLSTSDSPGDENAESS
BIRC2 BIR3, sequence (Q13490 251-372): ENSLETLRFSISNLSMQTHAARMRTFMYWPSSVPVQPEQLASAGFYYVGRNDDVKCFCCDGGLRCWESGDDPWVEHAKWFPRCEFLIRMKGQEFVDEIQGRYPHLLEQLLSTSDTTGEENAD
BIRC2, sequence (Q13490 whole entry, the tested form may be a part): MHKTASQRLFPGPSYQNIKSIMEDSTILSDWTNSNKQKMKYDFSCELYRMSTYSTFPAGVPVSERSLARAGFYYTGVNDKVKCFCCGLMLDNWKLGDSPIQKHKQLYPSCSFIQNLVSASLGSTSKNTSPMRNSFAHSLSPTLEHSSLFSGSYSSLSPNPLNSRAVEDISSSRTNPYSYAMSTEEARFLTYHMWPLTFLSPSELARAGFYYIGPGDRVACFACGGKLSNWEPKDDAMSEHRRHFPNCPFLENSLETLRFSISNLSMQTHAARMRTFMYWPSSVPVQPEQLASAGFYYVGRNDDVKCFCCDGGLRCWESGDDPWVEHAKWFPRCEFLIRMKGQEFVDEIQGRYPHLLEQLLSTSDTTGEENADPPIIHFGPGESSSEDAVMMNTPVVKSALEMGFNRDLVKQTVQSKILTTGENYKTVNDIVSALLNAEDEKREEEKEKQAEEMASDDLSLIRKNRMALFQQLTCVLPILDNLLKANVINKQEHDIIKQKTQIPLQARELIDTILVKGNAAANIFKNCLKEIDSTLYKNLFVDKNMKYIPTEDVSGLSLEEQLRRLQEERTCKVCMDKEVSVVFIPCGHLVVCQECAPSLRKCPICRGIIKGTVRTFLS
BIRC3 BIR2, sequence (Q13489 147-253): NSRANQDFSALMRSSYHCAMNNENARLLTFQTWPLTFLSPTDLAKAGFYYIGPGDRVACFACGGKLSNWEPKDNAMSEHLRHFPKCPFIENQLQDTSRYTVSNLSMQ
BIRC4, sequence (P98170 whole entry, the tested form may be a part): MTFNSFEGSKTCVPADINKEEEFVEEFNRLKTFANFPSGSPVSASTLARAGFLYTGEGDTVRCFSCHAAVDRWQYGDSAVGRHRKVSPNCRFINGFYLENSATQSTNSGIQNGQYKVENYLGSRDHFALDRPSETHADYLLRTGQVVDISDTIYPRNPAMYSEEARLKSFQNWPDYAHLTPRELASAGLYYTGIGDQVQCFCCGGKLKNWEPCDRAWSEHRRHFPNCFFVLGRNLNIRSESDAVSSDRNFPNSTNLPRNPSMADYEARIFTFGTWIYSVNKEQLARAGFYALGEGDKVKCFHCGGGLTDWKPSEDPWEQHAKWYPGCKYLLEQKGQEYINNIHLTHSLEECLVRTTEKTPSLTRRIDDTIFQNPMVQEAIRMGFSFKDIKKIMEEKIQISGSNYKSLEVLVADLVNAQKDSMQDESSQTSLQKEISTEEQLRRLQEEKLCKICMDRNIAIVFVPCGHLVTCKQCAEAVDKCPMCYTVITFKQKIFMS

- Kd [1]: 41.1 ± 2.9 nM
- EC50 [2]: 4.1 ± 0.1 nM
- EC50 [3]: 192 ± 99.3 nM
- EC50 [4]: 16.1 ± 6.3 nM
- EC50 [5]: 8 ± 0.3 nM
- melting temperature of BIRC2 BIR3 domain with compound ([6]; native domain ∼74°C): 92 °C
- ΔTm at 40 µM ([6]; read-out: DSF Assay ΔTm): 18 °C
- ΔTm [°C] (Supplementary Table S1) ([6]; first column): 18.2 °C
- ΔTm [°C] (Supplementary Table S1) ([6]; third column): 17.9 °C
- EC50 [7]: 85.5 ± 11.1 nM
- Ki [8]: 2.3 ± 0.3 nM
- EC50 [9]: 171 ± 151 nM
- EC50 [10]: 81.1 ± 14.8 nM
- EC50 [11]: 23 ± 14.4 nM
- EC50 [12]: 79.6 ± 37.5 nM
- EC50 [13]: 776 ± 200 nM
- EC50 [14]: 28.5 ± 3.2 nM
- EC50 [15]: 76.3 ± 0.1 nM
Molecule: CN[C@@H](C)C(=O)N[C@H](C(=O)N1CCC[C@H]1C(=O)N[C@H]1c2ccccc2C[C@H]1OCC#CC#CCO[C@@H]1Cc2ccccc2[C@@H]1NC(=O)[C@@H]1CCCN1C(=O)[C@@H](NC(=O)[C@H](C)NC)C1CCCCC1)C1CCCCC1 [AZD5582]
- Ki ([16]; calculated from IC50, ref Hennessy et al. (2013)): 6.4 ± 4.3 nM

- ITC TΔS [1]: 6.94 ± 0.1 kcal/mol
- Kd [1]: 24.8 ± 8.5 nM
- EC50 ([2]; read-out: EC50 ± SEM NanoBRET BIRC3 BIR3, single domain, HEK293T, n = 4): 1700 ± 400 nM
- EC50 ([3]; read-out: EC50 ± SEM NanoBRET BIRC2, full-length, HEK293T, n = 4): 500 ± 100 nM
- EC50 ([4]; read-out: EC50 ± SEM NanoBRET BIRC7 BIR, single domain, HEK293T, n = 4): 2700 ± 800 nM
- EC50 ([5]; read-out: EC50 ± SEM NanoBRET BIRC7, full-length, HEK293T, n = 4): 2600 ± 800 nM
- Mean, ΔTm [°C] (Supplementary Table S1) ([6]; mean of n=3, difference to DMSO control): 9.1 °C
- ΔTm [°C] (Supplementary Table S1) ([6]; first column): 9.1 °C
- ΔTm [°C] (Supplementary Table S1) ([6]; second column): 9.1 °C
- ΔTm [°C] (Supplementary Table S1) ([6]; third column): 9.1 °C
- EC50 ([7]; read-out: EC50 ± SEM NanoBRET BIRC8 BIR, single domain, HEK293T, n = 4): 3000 ± 100 nM
- Ki ([8]; BIRC2 BIR3 domain, Cheng-Prusoff from IC50, mean ± SD, n = 3): 8.4 ± 0.7 nM
- EC50 ([9]; read-out: EC50 ± SEM NanoBRET BIRC2 BIR2, single domain, HEK293T, n = 4): > 50000 nM
- EC50 ± SEM NanoBRET BIRC2 BIR2 ([9]; single domain, HEK293T, n = 4): did not show any binding
- EC50 ([10]; read-out: EC50 ± SEM NanoBRET BIRC3, full-length, HEK293T, n = 4): 800 ± 100 nM
- EC50 ([11]; read-out: EC50 ± SEM NanoBRET BIRC2 BIR3, single domain, HEK293T, n = 4): 800 ± 100 nM
- EC50 ([12]; read-out: EC50 ± SEM NanoBRET BIRC4, full-length, HEK293T, n = 4): 900 ± 100 nM
- EC50 ([13]; read-out: EC50 ± SEM NanoBRET BIRC1 BIR[2], single domain, HEK293T, n = 4): 10900 ± 2100 nM
- EC50 ([14]; read-out: EC50 ± SEM NanoBRET BIRC3 BIR2, single domain, HEK293T, n = 4): 18000 ± 25200 nM
- EC50 ([15]; read-out: EC50 ± SEM NanoBRET BIRC8, full-length, HEK293T, n = 4): 2600 ± 200 nM
Molecule: CN[C@@H](C)C(=O)N[C@H](C(=O)N1CCC[C@H]1C(=O)N[C@H](C(=O)NCCCCCCNC(=O)[C@@H](NC(=O)[C@@H]1CCCN1C(=O)[C@@H](NC(=O)[C@H](C)NC)C1CCCCC1)C(c1ccccc1)c1ccccc1)C(c1ccccc1)c1ccccc1)C1CCCCC1 [BV-6] (I: H-[NMeA][Chg]P[Dip] / II: H-[NMeA][Chg]P[Dip]; linker I:C-II:C via Hexamethylenediamine)
- Ki ([16]; ref Varfolomeev et al. (2007)): 169 nM

- Kd [17]: 14.9 nM
B1: fluorescently labeled SMAC probe (AVPIAQKSEK-K(5-FAM)-NH2) (peptide)
peptide: AVPIAQKSEKK
modifications: 5-FAM on the C-terminal lysine (K(5-FAM)); C-terminal amide (NH2)
notes: two lysines that follow the SMAC stretch; the last one carries 5-FAM; Probably a synthetic peptide; also called fluorescent SMAC mimetic; tracer
